Data: ChEMBL document CHEMBL3576820, “Discovery of benzimidazole oxazolidinediones as novel and selective nonsteroidal mineralocorticoid receptor antagonists” (ACS Med Chem Lett, 2015)
Active and inactive are the calls of the source. No cut-off for these calls is given here.

What was measured:
Progesterone receptor = target: T1, Progesterone receptor (Homo sapiens, UniProt P06401); assay: Antagonist activity at human progesterone receptor beta expressed in human U2OS cells assessed as inhibition of D(-)-norgestrel-induced protein interaction with steroid receptor co-activator peptide after overnight incubation by beta-galactosidase reporter gene assay; assay type: cell-based
T1 sequence (P06401 whole entry): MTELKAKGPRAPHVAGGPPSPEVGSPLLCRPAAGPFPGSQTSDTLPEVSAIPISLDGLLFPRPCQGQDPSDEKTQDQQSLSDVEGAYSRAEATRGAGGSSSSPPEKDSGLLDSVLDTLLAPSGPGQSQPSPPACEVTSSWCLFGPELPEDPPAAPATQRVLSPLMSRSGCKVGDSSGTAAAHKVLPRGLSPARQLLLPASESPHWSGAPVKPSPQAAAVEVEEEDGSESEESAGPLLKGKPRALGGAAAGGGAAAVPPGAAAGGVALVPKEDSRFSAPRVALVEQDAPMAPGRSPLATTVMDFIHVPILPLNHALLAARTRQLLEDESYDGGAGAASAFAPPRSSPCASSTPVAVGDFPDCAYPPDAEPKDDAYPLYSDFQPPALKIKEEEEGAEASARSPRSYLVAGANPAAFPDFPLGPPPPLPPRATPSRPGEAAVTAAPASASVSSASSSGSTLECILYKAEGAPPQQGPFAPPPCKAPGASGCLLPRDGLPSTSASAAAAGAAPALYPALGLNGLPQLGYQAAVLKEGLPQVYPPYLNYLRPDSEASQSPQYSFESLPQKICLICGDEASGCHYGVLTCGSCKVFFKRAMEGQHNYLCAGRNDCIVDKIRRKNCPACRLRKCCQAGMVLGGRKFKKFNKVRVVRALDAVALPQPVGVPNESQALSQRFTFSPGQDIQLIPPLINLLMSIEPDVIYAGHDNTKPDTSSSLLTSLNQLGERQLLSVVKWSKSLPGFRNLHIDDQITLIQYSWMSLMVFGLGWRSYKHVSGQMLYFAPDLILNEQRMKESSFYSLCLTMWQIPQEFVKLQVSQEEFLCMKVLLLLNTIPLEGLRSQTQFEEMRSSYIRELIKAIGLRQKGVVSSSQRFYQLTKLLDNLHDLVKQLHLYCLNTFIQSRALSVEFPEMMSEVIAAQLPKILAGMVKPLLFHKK

Glucocorticoid receptor = target: T2, Glucocorticoid receptor (Homo sapiens, UniProt P04150); assay: Antagonist activity at human glucocorticoid receptor expressed in CHOK1 cells assessed as inhibition of dexamethasone-induced protein interaction with steroid receptor co-activator peptide after overnight incubation by beta-galactosidase reporter gene assay; assay type: cell-based, CHO-K1
T2 sequence (P04150 whole entry): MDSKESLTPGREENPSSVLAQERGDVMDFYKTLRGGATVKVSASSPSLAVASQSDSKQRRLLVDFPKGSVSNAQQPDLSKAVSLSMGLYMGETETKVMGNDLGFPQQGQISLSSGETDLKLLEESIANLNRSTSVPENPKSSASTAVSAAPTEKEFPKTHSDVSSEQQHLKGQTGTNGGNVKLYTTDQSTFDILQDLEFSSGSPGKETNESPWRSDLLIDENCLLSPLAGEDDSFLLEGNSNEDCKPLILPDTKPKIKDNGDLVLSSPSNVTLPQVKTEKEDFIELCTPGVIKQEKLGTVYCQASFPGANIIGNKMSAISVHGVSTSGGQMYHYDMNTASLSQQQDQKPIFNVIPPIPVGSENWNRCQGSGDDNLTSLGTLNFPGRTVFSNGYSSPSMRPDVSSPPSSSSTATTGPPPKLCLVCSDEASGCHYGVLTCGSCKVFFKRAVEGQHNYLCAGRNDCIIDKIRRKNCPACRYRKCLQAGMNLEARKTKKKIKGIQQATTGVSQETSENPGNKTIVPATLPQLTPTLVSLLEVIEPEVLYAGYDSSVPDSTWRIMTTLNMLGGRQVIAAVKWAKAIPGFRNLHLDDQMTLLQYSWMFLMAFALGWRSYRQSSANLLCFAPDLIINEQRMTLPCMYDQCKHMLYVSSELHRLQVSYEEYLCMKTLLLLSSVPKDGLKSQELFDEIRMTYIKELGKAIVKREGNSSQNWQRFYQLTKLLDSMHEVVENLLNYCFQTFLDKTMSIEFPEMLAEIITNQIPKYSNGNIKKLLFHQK

[1] = target: T3, Mineralocorticoid receptor (Homo sapiens) (UniProt P08235); assay: Agonist activity at human mineralocorticoid receptor by cell-based assay
T3 sequence (whole entry): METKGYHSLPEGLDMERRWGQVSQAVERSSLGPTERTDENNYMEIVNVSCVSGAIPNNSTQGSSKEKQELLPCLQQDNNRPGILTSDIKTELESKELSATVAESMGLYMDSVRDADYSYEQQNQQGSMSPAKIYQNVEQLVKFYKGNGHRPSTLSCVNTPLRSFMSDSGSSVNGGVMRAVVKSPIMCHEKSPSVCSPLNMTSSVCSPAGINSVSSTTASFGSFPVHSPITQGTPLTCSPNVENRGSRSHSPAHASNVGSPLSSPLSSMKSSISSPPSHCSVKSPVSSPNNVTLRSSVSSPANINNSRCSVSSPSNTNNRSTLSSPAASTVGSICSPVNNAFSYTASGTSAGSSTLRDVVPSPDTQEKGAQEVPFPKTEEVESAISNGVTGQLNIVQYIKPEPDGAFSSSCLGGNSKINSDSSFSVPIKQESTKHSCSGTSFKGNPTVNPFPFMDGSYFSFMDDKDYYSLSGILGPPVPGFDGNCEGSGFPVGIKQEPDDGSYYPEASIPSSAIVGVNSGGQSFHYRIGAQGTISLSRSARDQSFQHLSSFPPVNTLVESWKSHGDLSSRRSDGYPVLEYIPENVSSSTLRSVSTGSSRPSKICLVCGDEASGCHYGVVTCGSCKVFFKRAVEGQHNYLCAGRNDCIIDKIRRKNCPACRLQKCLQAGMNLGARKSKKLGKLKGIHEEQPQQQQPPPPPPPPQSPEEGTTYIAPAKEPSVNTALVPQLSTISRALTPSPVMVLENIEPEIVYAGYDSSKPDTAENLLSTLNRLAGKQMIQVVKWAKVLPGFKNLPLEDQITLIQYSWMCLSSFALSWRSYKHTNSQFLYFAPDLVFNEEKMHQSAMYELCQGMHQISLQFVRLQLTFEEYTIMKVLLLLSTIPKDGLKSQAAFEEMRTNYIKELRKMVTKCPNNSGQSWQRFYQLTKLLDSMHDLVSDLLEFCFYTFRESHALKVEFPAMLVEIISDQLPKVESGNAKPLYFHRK

Row | Structure (SMILES) | IC50 (Progesterone receptor) | IC50 (Glucocorticoid receptor) | Activity [1]
1 | C[C@H](c1ccc(F)cc1)N1C(=O)O[C@](Cc2ccccc2)(c2nc3c(NS(C)(=O)=O)cccc3[nH]2)C1=O | 8.2 µM | 17 µM | inactive
2 | C[C@H](c1ccc(F)cc1)N1C(=O)O[C@](Cc2ccccc2)(c2nc3cc(C(F)(F)F)ccc3[nH]2)C1=O | 3.2 µM | 3.4 µM | inactive
3 | C[C@H](c1ccc(F)cc1)N1C(=O)O[C@](Cc2ccccc2)(c2nc3cc(NS(C)(=O)=O)ccc3[nH]2)C1=O | 4.9 µM | > 20 µM | inactive
4 | C[C@H](c1ccc(F)cc1)N1C(=O)O[C@](Cc2ccccc2)(c2nc3cc(-c4cc[nH]n4)ccc3[nH]2)C1=O | 2.9 µM | 3 µM | inactive

The next lines start with the values.

Row | IC50 (Progesterone receptor) | IC50 (Glucocorticoid receptor) | Activity [1] | Structure (SMILES)
5 | 2.8 µM | 2.9 µM | inactive | Cc1nocc1-c1ccc2[nH]c([C@@]3(Cc4ccccc4)OC(=O)N([C@H](C)c4ccc(F)cc4)C3=O)nc2c1
6 | 2.9 µM | 3.1 µM | inactive | C[C@H](c1ccc(F)cc1)N1C(=O)O[C@](Cc2ccccc2)(c2nc3cc(-c4cccnc4)ccc3[nH]2)C1=O
7 | 2.4 µM | 3.8 µM | inactive | C[C@H](c1ccc(F)cc1)N1C(=O)O[C@](Cc2ccccc2)(c2nc3cc(Cl)ccc3[nH]2)C1=O
8 | 1.9 µM | 4.9 µM | inactive | C[C@H](c1ccc(F)cc1)N1C(=O)O[C@](Cc2ccccc2)(c2nc3cc(N4CCOCC4)ccc3[nH]2)C1=O
